In one assay the test system is S. aureus (ATCC 29213). As to the kind of experiment: Filter disc zone of inhibition on tryptic soy agar. Format: cell-based. The following applies: 7 mm filter disc soaked with solution (equivalent of 1% silver nitrate), 37° C. overnight, measured from disc edge, average of two trials. On the procedure:
(§1) Additionally, a non-stabilized silver thiosulfate complex made according to Example 5. […] Filter paper discs (7 mm diameter) were soaked with either a stabilized silver thiosulfate solution or a non-stabilized silver thiosulfate solution. The antimicrobial studies were performed by first plating S. aureus (ATCC 29213) or E. coli (ATCC 225922) on tryptic soy agar. A disc containing the stabilized thiosulfate solution or the control solution was placed one each of these microbial lawns. […] The culture plates were incubated at 37° C. overnight. The zone of microbial growth inhibition (ZOI) was measured (in millimeters) from the edge of each filter disc and the results from two trials were averaged. The larger the measured ZOI, the greater the antimicrobial effect.

For a further assay, the system named is E. coli (ATCC 225922). As to the kind of experiment: Filter disc zone of inhibition on tryptic soy agar. The conditions noted are these: 7 mm filter disc soaked with solution (equivalent of 1% silver nitrate), 37° C. overnight, measured from disc edge, average of two trials. It is filed as cell-based. How it is done: as §1

Consider “silver nitrate [Silver Nitrate Solution]”, for which the “S. aureus Zone Of Inhibition” value in the assay with S. aureus (ATCC 29213) stood at 1.5 millimeters. Besides, in the assay on E. coli (ATCC 225922), the “E. coli Zone Of Inhibition” value stood at 1.0 millimeters.

These data come from US20040214809A1, “Stabilized silver-ion sulfite complex compositions and methods” (BioInterface Technologies, Inc., priority 2003, published 2004).
